{"source": "paper PMC12087653", "about": "(Autophagy, 2025)", "key": {"LGG-1": {"molecular_target": "LGG-1 (Caenorhabditis elegans, UniProt Q09490)", "sequence (Q09490 whole entry)": "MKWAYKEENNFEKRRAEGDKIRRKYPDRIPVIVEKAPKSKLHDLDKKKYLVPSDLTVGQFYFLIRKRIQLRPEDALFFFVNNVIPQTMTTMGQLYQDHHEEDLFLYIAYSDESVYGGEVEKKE", "details": "cited from earlier work"}, "[1]": {"tested_on": "STX17-SNAP29-VAMP8 complex", "details": "in vitro fusion assay; cited from earlier work"}, "LC3/GABARAP proteins": {"tested_on": "LC3/GABARAP proteins", "details": "cited from earlier work"}, "GABARAP": {"tested_on": "GABARAP", "details": "full-length HsEPG5; cited from earlier work"}, "HeLa cells": {"tested_on": "HeLa cells", "details": "Rab7 colocalization; cited from earlier work"}, "His-LGG-1": {"molecular_target": "His-LGG-1 (C. elegans, UniProt Q09490 1-116)", "sequence (Q09490 1-116)": "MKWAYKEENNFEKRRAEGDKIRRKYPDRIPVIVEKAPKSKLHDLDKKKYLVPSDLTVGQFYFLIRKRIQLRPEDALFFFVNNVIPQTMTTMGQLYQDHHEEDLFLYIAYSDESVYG", "assay": "ITC"}}, "data": [{"molecule": "CeEPG5: C. elegans EPG-5, recombinant", "values": [{"measurement": "binding to LGG-1", "setting": "LGG-1", "value": "binds the C. elegans Atg8 protein LGG-1 via its tandem LIR"}]}, {"molecule": "HsEPG5: human EPG5 (ectopic P-granules 5 autophagy tethering factor; ~290 kDa)", "values": [{"measurement": "effect on STX17-SNAP29-VAMP8 complex formation", "setting": "[1]", "value": "modestly enhances the formation of the STX17-SNAP29-VAMP8 complex"}, {"measurement": "dependence of peri-nuclear localization on LC3/GABARAP proteins", "setting": "LC3/GABARAP proteins", "value": "HsEPG5 localization to the peri-nuclear region is independent of LC3/GABARAP proteins"}, {"measurement": "Atg8 subfamily preference of HsEPG5", "setting": "GABARAP", "value": "preferentially binds members of the GABARAP subfamily"}, {"measurement": "formation of puncta / localization in cells", "setting": "HeLa cells", "value": "could form small puncta that colocalize with lysosomal surface-residing Rab7 in HeLa cells"}]}, {"molecule": "STWEILADDDD", "note": "[CeEPG5 LIR1 peptide (505STWEILADDDD515)]", "values": [{"measurement": "Kd", "setting": "His-LGG-1", "value": 1.46, "unit": "µM"}]}, {"molecule": "GEANEFSFVTINE", "note": "[CeEPG5 LIR2 peptide (516GEANEFSFVTINE528)]", "values": [{"measurement": "Kd", "setting": "His-LGG-1", "value": 10.4, "unit": "µM"}]}]}
